Source: patent US5217956A, “Composition and treatment with biologically active peptides and certain anions” (priority 1991, dated 1993)
No end group written: not given here.

How the values were obtained:
Enterobacter cloacae = assay type: cell-based
Procedure: (§1) Approximately 1,000 bacteria were seeded into about 200 ul of trypticase soy broth. Either magainin 2 carboxy terminal amide, PGLa, or ALSKALSK ALSKALSKALSKALSK (Z-44) were added in increasing concentrations in the absence (Panel A) or presence (Panel B) of 50 mM NaF.

Pseudomonas aeruginosa = experiment: Minimal inhibitory concentration in trypticase soy broth versus Pseudomonas aeruginosa; assay type: cell-based
Procedure: as §1

E. cloacae = experiment: Killing of E. cloacae: viable organisms on plating after incubation in TSB; assay type: cell-based, Enterobacter cloacae; conditions: for CFU / EOP (% viable): 15 min at 37° C.
Procedure: LEGEND: Organisms were incubated in a volume of 1 ml in either trypticase soy broth alone or containing substances noted for 15 min at 37° C. An aliquot was then diluted and plated to determine number of viable organisms.

For GMASKAGAIAGKIAKVALKAL-NH2 [PGLa], the “MINIMAL INHIBITORY CONCENTRATION” value (Enterobacter cloacae) was greater than 250 µg/mL.

In the case of GIGKFLHSAKKFGKAFVGEIMNS-NH2 [MGN2], the “MINIMAL INHIBITORY CONCENTRATION” value (Pseudomonas aeruginosa; Panel A: absence of NaF) is reported as 250 to 500 µg/mL, the “MINIMAL INHIBITORY CONCENTRATION” value (Pseudomonas aeruginosa; Panel B: +50 mM NaF) is reported as 60 to 125 µg/mL and the bacterial killing (E. cloacae; 60 ug/ml MGN2 + 50 mM NaF, 10^7 E. cloacae in 1 ml TSB) is reported as “all bacteria are killed”. For the same compound, the “potentiation of effective killing power by addition of fluoride” value (E. cloacae; 60 ug/ml MGN2 with versus without NaF) was “over 1 million”, the CFU (E. cloacae; peptide 60 ug/ml + NaF 25 mM) was 0 and the “EOP (% viable)” value (E. cloacae; peptide 60 ug/ml + NaF 25 mM) was 0%. The CFU (E. cloacae; peptide 60 ug/ml, no NaF, 10^7 organisms in 1 ml TSB) was “about 10^6”, the CFU (E. cloacae; peptide 60 ug/ml, no NaF, 10^7 organisms in 1 ml TSB, listed as MGN2 (NH2)) was 10^6 and the “EOP (% viable)” value (E. cloacae; peptide 60 ug/ml, no NaF) was 90%.

In the case of `[F-].[Na+]` [NaF, sodium fluoride], the CFU (E. cloacae; NaF 25 mM alone) is reported as 10^7 and the “EOP (% viable)” value (E. cloacae; NaF 25 mM alone) is reported as 100%.
